The source of these data is article PMC7187413 (Journal of medicinal chemistry, 2020).

The target in test [1] is WDR5 (Homo sapiens, UniProt P61964). Kind of test: Competition fluorescence polarization-based assay.
Test [2] deals with WDR5-MYC complex (Homo sapiens, UniProt P61964). Kind of test: Co-IP target engagement in whole. It counts as cell-based. As to conditions: transformed HEK293 cells, 5 μM compound, 24 h.
The target in test [3] is MLL-1 in the full WDR5, RBBP5, ASH2L, and DPY30 (WRAD) complex (Homo sapiens, UniProt P61964). Kind of test: Biochemical histone methyltransferase assay. The note with it: Supplemental Table 4.
Test [4] relates to MYC bound to chromatin. Kind of test: ChIP-qPCR of MYC binding to target genes in c-MYC-HA overexpressing HEK293 cells. It counts as cell-based, human. The note with it: 20 μM, 10 h.
Test [5] has as its system WDR5 binding to chromatin. Kind of test: ChIP of WDR5 binding to chromatin at MYC target genes in HEK293 cells. Format: cell-based, human. The note with it: cells treated with 12 versus N.C.

Entries after “also recorded” stand apart in the source; their conditions may differ.

Regarding “5-Bromo-3-chloro-N-(1-cyclopentyl-2-(4-(pyrrolidin-3-yl)piperidine-1-carbonyl)-1H-imidazol-4-yl)-2-hydroxybenzenesulfonamide [Compound 9]”, the Kd in test [1] (read-out: FPA Kd, competition with FITC-labeled small molecule, average of at least 3 independent replicates ± standard deviation) stood at 5 ± 1 µM.

For `O=S(=O)(Nc1cn(C2CCCC2)cn1)c1cc(Br)cc(Cl)c1O` [Compound 2i, 5-Bromo-3-chloro-N-(1-cyclopentyl-1H-imidazol-4-yl)-2-hydroxybenzenesulfonamide], the “WDR5-MYC complex formation in whole cells relative to DMSO” value in test [2] is listed as “decreased complex formation”. Also, in test [1] (FPA Kd relative to 2a), the “fold improvement in the binding affinity compared to 2a” value is 2.5 fold.

For the compound `O=S(=O)(Nc1cnn(C2CCCC2)c1)c1cc(Br)cc(Cl)c1O` [Compound 3d, 5-Bromo-3-chloro-N-(1-cyclopentyl-1H-pyrazol-4-yl)-2-hydroxybenzenesulfonamide], the “inhibition of histone methyltransferase activity of MLL-1” value (from here on “inhibition”) in test [3] was “inhibited”.

As to `CCOC(=O)c1nc(NS(=O)(=O)c2cc(Br)cc(Cl)c2O)cn1C1CCCC1` [Compound 6, Ethyl 4-((5-bromo-3-chloro-2-hydroxyphenyl)sulfonamido)-1-cyclopentyl-1H-imidazole-2-carboxylate], the “inhibition” value in test [3] was “inhibited”.

`CNC(=O)c1nc(NS(=O)(=O)c2cc(Br)cc(Cl)c2O)cn1C1CCCC1` [Compound 8, 4-((5-Bromo-3-chloro-2-hydroxyphenyl)sulfonamido)-1-cyclopentyl-N-methyl-1H-imidazole-2-carboxamide]: the “inhibition” value in test [3] is reported as “inhibited”.

For the compound `CS(=O)(=O)c1nc(NS(=O)(=O)c2cc(Br)cc(Cl)c2O)cn1C1CCCC1` [Compound 12], the “inhibition” value in test [3] is “inhibited”. In test [4] (C7orf40, RNPS1, RPS14, RPL5), the “amount of MYC at loci where MYC recruitment is dependent on WDR5” value is given as “reduction in the amount of MYC; also recorded: reduce the amount of MYC bound to chromatin”. Further, in test [4] (ZFPM1 and ZNF771), the “amount of MYC at sites where MYC binding is independent of WDR5” value was “remained nearly unaffected; also recorded: did not affect binding of MYC”. Moreover, the “WDR5 binding to chromatin at MYC target loci” value in test [5] is recorded as “comparable levels”.
